Laboratory results taken from PubChem BioAssay (NCI).
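1) Cells in 96-well plates. 2) Compound, 48 h, 5 concentrations. 3) Linear interpolation between surrounding doses. 4) Unreached endpoint = highest concentration. TGI: total growth inhibition.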

Legend:
Experiment in all cases: growth of human tumour cells (NCI), 48 h
A498 renal = tested on: A498 renal
ACHN renal = tested on: ACHN renal
CAKI-1 renal = tested on: CAKI-1 renal
COLO 205 colon = tested on: COLO 205 colon
HCT-116 colon = tested on: HCT-116 colon
HCT-15 colon = tested on: HCT-15 colon
HOP-92 NSCLC = tested on: HOP-92 NSCLC
IGROV1 ovarian = tested on: IGROV1 ovarian
K-562 leukemia = tested on: K-562 leukemia
M14 melanoma = tested on: M14 melanoma
NCI-H23 lung = tested on: NCI-H23 lung
OVCAR-5 ovarian = tested on: OVCAR-5 ovarian
OVCAR-8 ovarian = tested on: OVCAR-8 ovarian
RPMI-8226 leukemia = tested on: RPMI-8226 leukemia
SF-539 CNS = tested on: SF-539 CNS
SK-MEL-5 melanoma = tested on: SK-MEL-5 melanoma
SK-OV-3 ovarian = tested on: SK-OV-3 ovarian
SNB-19 CNS = tested on: SNB-19 CNS
SNB-75 CNS = tested on: SNB-75 CNS
TK-10 renal = tested on: TK-10 renal

Row | Compound | TGI (A498 renal) [µM] | TGI (ACHN renal) [µM] | TGI (CAKI-1 renal) [µM] | TGI (COLO 205 colon) [µM] | TGI (HCT-116 colon) [µM] | TGI (HCT-15 colon) [µM] | TGI (HOP-92 NSCLC) [µM] | TGI (IGROV1 ovarian) [µM] | TGI (K-562 leukemia) [µM] | TGI (M14 melanoma) [µM] | TGI (NCI-H23 lung) [µM] | TGI (OVCAR-5 ovarian) [µM] | TGI (OVCAR-8 ovarian) [µM] | TGI (RPMI-8226 leukemia) [µM] | TGI (SF-539 CNS) [µM] | TGI (SK-MEL-5 melanoma) [µM] | TGI (SK-OV-3 ovarian) [µM] | TGI (SNB-19 CNS) [µM] | TGI (SNB-75 CNS) [µM] | TGI (TK-10 renal) [µM]
1 | C[n+]1c2ccccc2c(NC(CS)C(=O)O)c2ccccc21 (configuration not stated) | 53 | > 100 | 97.2 | > 100 | 30.7 | > 100 | 60.2 | > 100 | > 100 | > 100 | > 100 | > 100 | 61.2 | 53.9 | 44 | 44.6 | 61 | > 100 | 73.5 | > 100
2 | COC(=O)c1cc2cc3c(c(O)c2c(=O)o1)O[C@@]1(Oc2c(O)c4c(c(O)c2[C@H]1OC1CC(OC)C(O)C(C)O1)C(=O)C=C(OC)C4=O)[C@H](O)C3 (some centres not stated) | – | 9.19 | 3.2 | 14.1 | > 20.8 | > 19.7 | > 23.6 | 7.17 | 8.82 | > 100 | 3.85 | > 24.3 | 10.7 | 4.44 | 1.97 | – | 17 | 12.6 | – | 17.5
3 | N=[N+]=CC(=O)CCC(NC(=O)C(CCC(=O)C=[N+]=N)NC(=O)CCC(N)C(=O)O)C(=O)O (configuration not stated) | > 100 | – | > 100 | > 100 | > 100 | > 100 | > 100 | > 100 | > 100 | – | > 100 | > 100 | > 100 | > 100 | > 100 | > 100 | > 100 | > 100 | > 100 | –
4 | C1CSC(=[N+]2CC[N+](=C3SCCS3)CC2)S1 | > 100 | > 100 | > 100 | > 100 | > 100 | > 100 | > 100 | > 100 | > 100 | > 100 | > 100 | > 100 | > 100 | > 100 | > 100 | > 100 | > 100 | > 100 | > 100 | > 100
5 | Cc1c(Cl)c(S(N)(=O)=O)cc2c1NC=NS2(=O)=O | > 100 | > 100 | > 100 | > 100 | > 100 | > 100 | > 100 | > 100 | > 100 | > 100 | > 100 | > 100 | > 100 | > 100 | – | > 100 | > 100 | > 100 | > 100 | > 100
6 | C/C(=N\NC(=S)N1CCN(C)CC1)c1nc2ncccc2[nH]1 | > 100 | > 100 | > 100 | > 100 | – | > 100 | > 100 | > 100 | > 100 | > 100 | > 100 | > 100 | > 100 | > 100 | > 100 | > 100 | > 100 | > 100 | > 100 | > 100
7 | Oc1ccc(Cc2nccc3cc(O)c(O)cc23)cc1O | > 100 | > 100 | > 100 | 51.3 | 35.1 | > 100 | > 100 | > 100 | > 100 | 78.2 | > 100 | > 100 | > 100 | > 100 | > 100 | > 100 | > 100 | > 100 | > 100 | > 100
